This passage reports EC50 results from patent US9675593B2, “Anti-fibrotic pyridinones” (InterMune, Inc., priority 2012, dated 2017).

What is called EC50 is the concentration at which the effect is half-maximal. Read a low EC50 as higher potency in that assay.

The test relates to TGF-b induced Endothelin-1 (ET-1) production. Nature of the test: ET-1 assay: inhibitory effect on TGF-b induced endothelin-1 production. The format is cell-based. Particulars: Homo sapiens, Fibroblast; fibroblasts, stimulant (TGFb, serum, LPA etc), ET-1 by ELISA. As for the experimental part: Assay of Inhibitory Effect on TGF-b induced Endothelin-1 Production
Fibroblasts (primary human lung and dermal, HFL-1, 3T3 etc) are seeded in 96-well plates at ˜15000 cells/well and serum starved for 0-48 hours. After media exchange, compounds serially diluted in DMSO are added to the cells. After a brief incubation of ˜30 min, stimulants (TGFb, serum, LPA etc) are added followed by further incubation for 16-48 hours. Media is then harvested and stored frozen in plate format for later endothelin-1 (ET-1) determination by ELISA. Toxicity measurements are made using the ATPlite kit (Perkin-Elmer). ET-1 is quantified using an ELISA kit (R&D Systems). The amount of ET-1 produced in the assay wells are back-calculated using the ELISA standard. The ability of a compound to inhibit ET-1 production is typically analyzed by fitting dose-response curves to a 4-parameter logistic function to obtain an EC50 value. A measure of cytotoxicity (CC50) is likewise reported from the same experiment using the ATPlite data.
(In general: In an ELISA, binding on a coated surface is turned into a signal by an enzyme label.)

With `O=C(Nc1cc(=O)n(-c2ccc(OC(F)(F)F)cc2)cc1-c1ccc(F)cc1)Oc1ccccc1` [Compound 113], the EC50 is over 200 µM. As for `Cc1cc(-c2cnn(C)c2)cn(-c2ccc(OC(F)(F)F)cc2)c1=O` [Compound 352], the figure is 50 to 200 µM; as for `O=c1ccc(-c2ccnnc2)cn1-c1ccc(OC(F)(F)F)cc1` [Compound 347], 50 to 200 µM.
